Data taken from patent US8835427B2, “Fungicidal heterocyclic compounds” (priority 2010, dated 2014).
Marks after values point to notes of the source that are not given here.

What was measured:
Assay type in all cases: in vivo
Phytophthora infestans [1] = conditions: 40 ppm test suspension (asterisk); tomato seedlings sprayed 17 h after inoculation with Phytophthora infestans; rating 100 = 100% disease control, 0 = no control relative to the controls
Plasmopara viticola = experiment: Test A: grape downy mildew, grape seedlings sprayed after inoculation, visual disease rating; conditions: 40 ppm test suspension (asterisk); grape seedlings sprayed 24 h after inoculation with Plasmopara viticola; rating 100 = 100% disease control, 0 = no control relative to the controls
Phytophthora infestans [2] = conditions: 40 ppm test suspension (asterisk); tomato seedlings sprayed the day before inoculation with Phytophthora infestans; rating 100 = 100% disease control, 0 = no control relative to the controls

Row | SMILES | Test C rating (disease control, tomato late blight) (Phytophthora infestans [1]) | Test A rating (disease control, grape downy mildew) (Plasmopara viticola) | Test B rating (disease control, tomato late blight) (Phytophthora infestans [2])
1 | Cc1cc(C(F)(F)F)nn1CC(=O)N1CCC(c2nc(C3=NOC(c4c(F)cccc4F)C3)cs2)CN1 (stereo not drawn) [Compound 1, 1-[4-[4-[5-(2,6-difluorophenyl)-4,5-dihydro-3-isoxazolyl]-2-thiazolyl]tetrahydro-1(2H)-pyridazinyl]-2-[5-methyl-3-(trifluoromethyl)-1H-pyrazol-1-yl]ethanone] | 99* % | 99* % | 100* %
2 | Cc1cc(C(F)(F)F)nn1CC(=O)N1CCC(c2nc(C3=NOC(c4c(F)cccc4F)C3)cs2)CO1 (stereo not drawn) [Compound 3] | 99* % | 100* % | 100* %
3 | Cc1cc(C(F)(F)F)nn1CC(=O)N1CC2CN(c3nc(C4=NOC(c5c(F)cccc5F)C4)cs3)CC2C1 (stereo not drawn) [Compound 4, 1-[5-[4-[5-(2,6-difluorophenyl)-4,5-dihydro-3-isoxazolyl]-2-thiazolyl]hexahydropyrrolol[3,4-c]pyrrol-2(1H)-yl]-2-[5-methyl-3-(trifluoromethyl)-1H-pyrazol-1-yl]ethanone] | 99* % | 99* % | 100* %
4 | CC(=O)N1CC(c2nc(C3=NOC(c4c(F)cccc4F)C3)cs2)CCN1C(=O)Cn1nc(C(F)(F)F)cc1C (stereo not drawn) [Compound 2, 1-[2-Acetyl-4-[4-[5-(2,6-difluorophenyl)-4,5-dihydro-3-isoxazolyl]-2-thiazolyl]tetrahydro-1(2H)-pyridazinyl]-2-[5-methyl-3-(trifluoromethyl)-1H-pyrazol-1-yl]ethanone] | 98* % | 89* % | 100* %
